According to ChEMBL document CHEMBL1201862, “PubChem BioAssay data set” (2004):
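Values below derive from 48-hour exposures of cells grown in 96-well plates, with endpoints linearly interpolated between the two concentrations bracketing the appropriate inhibition level. GI50: concentration for 50% inhibition of growth.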 Active and inactive are the calls of the source. Rule as the data show it: active = GI50 up to about 1.1 µM and inactive = higher. Where a SMILES comes first, the peptide text is derived from it. Bridges are numbered along the chain shown (N, C = ends). [ ]: non-standard residue; d: D form. The star is where a group is joined. ξ: configuration not given here. PhAc = O=C(Cc1ccccc1)*; ξP = O=C(O)C1CCCN1

Tests used:
Test in all cases: growth of human tumour cells (NCI), 48 h
786-0 = tested on: 786-0
CAKI-1 = tested on: CAKI-1
COLO 205 = tested on: COLO 205
DU-145 = tested on: DU-145
HCC 2998 = tested on: HCC 2998
HCT-116 = tested on: HCT-116
HT-29 = tested on: HT-29
LOX IMVI = tested on: LOX IMVI
MDA-MB-231 = tested on: MDA-MB-231
Malme-3M = tested on: Malme-3M
NCI-H460 = tested on: NCI-H460
NCI/ADR-RES = tested on: NCI/ADR-RES
OVCAR-3 = tested on: OVCAR-3
SF-268 = tested on: SF-268
SF-295 = tested on: SF-295
SK-MEL-28 = tested on: SK-MEL-28
SK-MEL-2 = tested on: SK-MEL-2
SK-OV-3 = tested on: SK-OV-3
SR = tested on: SR
UACC-257 = tested on: UACC-257

| Compound | GI50 (786-0) | GI50 (CAKI-1) | GI50 (COLO 205) | GI50 (DU-145) | GI50 (HCC 2998) | GI50 (HCT-116) | GI50 (HT-29) | GI50 (LOX IMVI) | GI50 (MDA-MB-231) | GI50 (Malme-3M) | GI50 (NCI-H460) | GI50 (NCI/ADR-RES) | GI50 (OVCAR-3) | GI50 (SF-268) | GI50 (SF-295) | GI50 (SK-MEL-28) | GI50 (SK-MEL-2) | GI50 (SK-OV-3) | GI50 (SR) | GI50 (UACC-257) |
| --- | --- | --- | --- | --- | --- | --- | --- | --- | --- | --- | --- | --- | --- | --- | --- | --- | --- | --- | --- | --- |
| COc1ccc(/C=C2\C(=O)NC(=O)c3ccccc32)cc1OC | 16.8 µM (inactive) | 26.7 µM (inactive) | 50.4 µM (inactive) | > 100 µM (inactive) | > 46.6 µM (inactive) | 6.78 µM (inactive) | 54.8 µM (inactive) | 10.5 µM (inactive) | 48.2 µM (inactive) | > 86.9 µM (inactive) | 45.6 µM (inactive) | 42.2 µM (inactive) | 7.48 µM (inactive) | 18.2 µM (inactive) | 52.2 µM (inactive) | > 77.3 µM (inactive) | 45.3 µM (inactive) | 36.3 µM (inactive) | 2.42 µM (inactive) | > 100 µM (inactive) |
| COC(=O)C(CCCCN)NC(=O)C(CCCCN)NC(C)=O.Cc1ccc(C(=O)Nc2ccc(S(=O)(=O)O)c3cc(S(=O)(=O)O)cc(S(=O)(=O)O)c23)cc1NC(=O)c1cccc(NC(=O)Nc2cccc(C(=O)Nc3cc(C(=O)Nc4ccc(S(=O)(=O)O)c5cc(S(=O)(=O)O)cc(S(=O)(=O)O)c45)ccc3C)c2)c1 | > 50 µM (inactive) | > 50 µM (inactive) | > 50 µM (inactive) | > 50 µM (inactive) | > 50 µM (inactive) | > 50 µM (inactive) | > 50 µM (inactive) | > 50 µM (inactive) | 16.2 µM (inactive) | > 50 µM (inactive) | > 50 µM (inactive) | > 50 µM (inactive) | > 50 µM (inactive) | > 50 µM (inactive) | > 50 µM (inactive) | > 50 µM (inactive) | > 50 µM (inactive) | > 50 µM (inactive) | > 50 µM (inactive) | > 50 µM (inactive) |
| COc1ccc(NC2CC(C)N(C(=O)c3ccccc3)O2)cc1 (stereo not given) | > 10 µM (inactive) | > 10 µM (inactive) | > 10 µM (inactive) | > 10 µM (inactive) | > 10 µM (inactive) | > 10 µM (inactive) | > 10 µM (inactive) | > 10 µM (inactive) | > 10 µM (inactive) | > 10 µM (inactive) | > 10 µM (inactive) | > 10 µM (inactive) | > 10 µM (inactive) | > 10 µM (inactive) | > 10 µM (inactive) | > 10 µM (inactive) | > 10 µM (inactive) | > 10 µM (inactive) | > 10 µM (inactive) | > 10 µM (inactive) |
| O=[N+]([O-])c1cccc2nc3ccccc3c(NCCO)c12 | 0.00315 µM (active) | 0.00323 µM (active) | 0.00167 µM (active) | 0.0036 µM (active) | 0.00166 µM (active) | 0.00202 µM (active) | 0.000108 µM (active) | 0.00418 µM (active) | 0.00215 µM (active) | 0.00331 µM (active) | 0.000767 µM (active) | 0.00566 µM (active) | 0.000486 µM (active) | 0.00326 µM (active) | 0.00467 µM (active) | 0.00217 µM (active) | 0.00502 µM (active) | 0.00387 µM (active) | 2.36e-05 µM (active) | 0.00421 µM (active) |
| O=Cc1c2c(cc3c1CC1(C3)Cc3cc4c(c(C=O)c3C1)CCCC4)CCCC2 | > 31.6 µM (inactive) | 46.5 µM (inactive) | 25.1 µM (inactive) | 85.3 µM (inactive) | 29.4 µM (inactive) | 20.4 µM (inactive) | 18 µM (inactive) | 23.6 µM (inactive) | 27.6 µM (inactive) | > 31.6 µM (inactive) | 52.2 µM (inactive) | > 31.6 µM (inactive) | > 31.6 µM (inactive) | > 100 µM (inactive) | 20.6 µM (inactive) | > 100 µM (inactive) | > 10 µM (inactive) | > 31.6 µM (inactive) | 10.1 µM (inactive) | > 31.6 µM (inactive) |
| N#Cc1c(O)c(/N=N/c2ccc(Cl)cc2)c(=O)n2c1[nH]c1ccccc12 | 48.6 µM (inactive) | 78.3 µM (inactive) | 52.2 µM (inactive) | 38.5 µM (inactive) | 41.5 µM (inactive) | 37.9 µM (inactive) | 35.8 µM (inactive) | > 100 µM (inactive) | 29.3 µM (inactive) | 40.6 µM (inactive) | 45.6 µM (inactive) | 44 µM (inactive) | 26.4 µM (inactive) | 45 µM (inactive) | 36.9 µM (inactive) | 45.2 µM (inactive) | 45.8 µM (inactive) | 94 µM (inactive) | 29.9 µM (inactive) | 52.1 µM (inactive) |
| COc1cc(-c2cc(=O)c3cc4c(=O)cc(-c5cc(OC)c(OC)c(OC)c5)oc4cc3o2)cc(OC)c1OC | 14.3 µM (inactive) | 23.2 µM (inactive) | > 100 µM (inactive) | 35.7 µM (inactive) | > 100 µM (inactive) | 30.9 µM (inactive) | > 100 µM (inactive) | 36.1 µM (inactive) | > 39 µM (inactive) | 43.2 µM (inactive) | > 100 µM (inactive) | 65.9 µM (inactive) | > 87.1 µM (inactive) | 23.5 µM (inactive) | 17.5 µM (inactive) | > 100 µM (inactive) | 16.7 µM (inactive) | 18.8 µM (inactive) | > 100 µM (inactive) | > 83.6 µM (inactive) |
| COc1cc(/C=C2/C[C@H]3[C@@H]4CC=C5C[C@@H](O)CC[C@]5(C)[C@H]4CC[C@]3(C)NC2=O)cc(OC)c1OC | 17.7 µM (inactive) | 11.9 µM (inactive) | > 38.9 µM (inactive) | 2.28 µM (inactive) | 10.9 µM (inactive) | 22.1 µM (inactive) | 24 µM (inactive) | 20 µM (inactive) | 20.1 µM (inactive) | 13.3 µM (inactive) | 11.8 µM (inactive) | 15.8 µM (inactive) | 28.7 µM (inactive) | 9.12 µM (inactive) | 19.6 µM (inactive) | 29.2 µM (inactive) | 22 µM (inactive) | 31.6 µM (inactive) | 39.8 µM (inactive) | 27.5 µM (inactive) |
| CSc1nc2c3ccccc3ccn2c1C(=O)N/N=C/c1ccccc1 | 15.5 µM (inactive) | 14.9 µM (inactive) | > 73.6 µM (inactive) | > 74.6 µM (inactive) | > 100 µM (inactive) | 15.5 µM (inactive) | > 100 µM (inactive) | > 100 µM (inactive) | 18.1 µM (inactive) | 47.6 µM (inactive) | 17.3 µM (inactive) | 28.9 µM (inactive) | 17.9 µM (inactive) | 19.7 µM (inactive) | 24 µM (inactive) | > 100 µM (inactive) | > 95.7 µM (inactive) | 19.6 µM (inactive) | 41.9 µM (inactive) | > 100 µM (inactive) |
| O=C(Cc1ccccc1)N[C@@H]1COC(=O)C2CCCN2C(=O)[C@@H]2CCCN2C1=O (stereo not given in full) (PhAc-[dS]-Pro-[ξP]; ester 1-C) | > 100 µM (inactive) | > 100 µM (inactive) | > 100 µM (inactive) | > 100 µM (inactive) | > 100 µM (inactive) | > 100 µM (inactive) | > 100 µM (inactive) | > 100 µM (inactive) | > 100 µM (inactive) | > 100 µM (inactive) | > 100 µM (inactive) | > 100 µM (inactive) | > 100 µM (inactive) | > 100 µM (inactive) | > 100 µM (inactive) | > 100 µM (inactive) | > 100 µM (inactive) | > 100 µM (inactive) | > 100 µM (inactive) | > 100 µM (inactive) |
